Legend:
[1] = target: T1, Biotin tagged HIF-2α protein containing PAS-B domain (240-350) (Homo sapiens, UniProt Q99814); experiment: HIF-2α Scintillation Proximity Assay (SPA) binding assay; settings: 50 nM HIF-2α protein, 25 nM 3H-tracer, 2% DMSO
T1 construct: Biotin tagged HIF-2α protein containing PAS-B domain (240-350) was prepared and purified in-house; made in house
Description: HIF-2α Scintillation Proximity Assay (SPA) Binding Assay:
Biotin tagged HIF-2α protein containing PAS-B domain (240-350) was prepared and purified in-house.
Compounds solubilized in DMSO were dispensed into a white 384-well polystyrene non-binding flat clear bottom plate (Greiner Bio-One, Cat #781903) using an HP D300 dispenser. Ten microliters of biotinylated HIF-2α protein in buffer (25 mM Tris-HCl, pH 7.4, 150 mM NaCl, 0.15% BSA and 0.001% Tween 20) was added to the compound wells and allowed to incubate for 1 hour at room temperature. Ten microliters of SPA bead mix were added to the wells and incubated for an additional 45 minutes, followed by 10 ul of ^3H-tracer solution. Final assay conditions comprised 50 nM HIF-2α protein, 25 nM radiolabeled tracer and 3 ug beads per well with compounds in 2% DMSO. The plate was read using a MicroBeta Microplate Counter (PerkinElmer) for luminescence detection. The IC50 values of the test compounds were determined from compound dose response curves fitted using a standard four parameter fit equation and are reported in Table 2.

[2] = target: T2, HIF-2α (Homo sapiens, UniProt Q99814); experiment: HIF-2α Luciferase Reporter Assay (serum), HRE-luciferase 786-0 cells in 100% human serum; format: cell-based; settings: for IC50: 100% human serum, 786-0 reporter cells, overnight incubation, read-out: Serum Potency; for Serum Shift (approximate): ratio of IC50 in 100% serum to IC50 in serum free conditions
Outline: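 786-0 cells stably expressing an HRE-luciferase reporter were plated and rested 3 h. They were then treated overnight at 37 °C with compound diluted in 100% human serum. Serum was replaced with Opti-MEM, ONE-Glo luminescence was read, and IC50 came from a 4-parameter logistic fit.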

[3] = target: T2, HIF-2α; experiment: HIF-2α Luciferase Reporter Assay (serum free) in HIF-Luc-786-0 cells; format: cell-based; settings: Opti-MEM, 786-0 reporter cells, 20 hours incubation
Outline: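 786-0 cells stably transduced with HIF luciferase reporter, 20,000 cells/well in serum-free Opti-MEM, compounds (50 uM downward, 1% DMSO) 20 h at 37 °C. ONE-Glo luminescence normalized to DMSO and no-cell controls; IC50 from four-parameter fit.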

T1 sequence (Q99814 240-350): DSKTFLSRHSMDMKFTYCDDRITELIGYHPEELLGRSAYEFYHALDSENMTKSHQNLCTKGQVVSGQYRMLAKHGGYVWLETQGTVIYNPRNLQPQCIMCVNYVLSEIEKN
T2 sequence (Q99814 whole entry): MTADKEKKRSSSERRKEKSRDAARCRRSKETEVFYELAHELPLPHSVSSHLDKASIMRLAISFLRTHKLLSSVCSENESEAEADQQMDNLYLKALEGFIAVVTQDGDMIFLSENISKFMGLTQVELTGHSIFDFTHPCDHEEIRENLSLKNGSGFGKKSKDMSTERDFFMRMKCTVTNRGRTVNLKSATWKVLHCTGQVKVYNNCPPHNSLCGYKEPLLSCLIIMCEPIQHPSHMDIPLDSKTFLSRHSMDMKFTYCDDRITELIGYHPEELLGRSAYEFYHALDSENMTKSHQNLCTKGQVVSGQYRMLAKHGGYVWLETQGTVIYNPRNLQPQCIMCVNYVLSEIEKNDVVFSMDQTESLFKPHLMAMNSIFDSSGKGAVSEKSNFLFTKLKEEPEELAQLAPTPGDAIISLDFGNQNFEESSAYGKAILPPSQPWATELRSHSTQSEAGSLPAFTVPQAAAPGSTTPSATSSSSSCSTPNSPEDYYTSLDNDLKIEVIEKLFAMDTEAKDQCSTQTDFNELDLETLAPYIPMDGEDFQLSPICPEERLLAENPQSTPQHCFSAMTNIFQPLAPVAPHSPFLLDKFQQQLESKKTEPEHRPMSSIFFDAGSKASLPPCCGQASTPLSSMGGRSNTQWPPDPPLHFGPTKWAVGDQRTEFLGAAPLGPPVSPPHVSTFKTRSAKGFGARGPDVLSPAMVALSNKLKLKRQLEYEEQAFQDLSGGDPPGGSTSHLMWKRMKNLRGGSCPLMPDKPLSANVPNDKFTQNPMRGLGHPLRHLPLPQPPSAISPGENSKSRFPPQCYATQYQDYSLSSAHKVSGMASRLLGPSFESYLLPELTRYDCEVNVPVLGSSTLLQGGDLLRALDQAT

Row | SMILES | IC50 [1] [nM] | IC50 [2] [nM] | Serum Shift (approximate) [2] | IC50 [3] [nM]
1 | O[C@H]1c2c(C(F)(F)F)nn(CCC3CC3(F)F)c2CCC1(F)F (stereo partly drawn) [Example 20, (4S)-1-[2-(2,2-difluorocyclopropyl)ethyl]-5,5-difluoro-3-(trifluoromethyl)-4,5,6,7-tetrahydro-1H-indazol-4-ol] | < 100 | 100 to 1000 | 7 | < 100
2 | CS(=O)(=O)CCn1nc(C(F)(F)F)c2c1CCC(F)(F)[C@H]2O [Example 42, (4S)-5,5-difluoro-1-(2-methylsulfonylethyl)-3-(trifluoromethyl)-6,7-dihydro-4H-indazol-4-ol] | 100 to 1000 | > 1000 | 6 | 100 to 1000
3 | O=S1(=O)CC(Cn2nc(C(F)(F)F)c3c2CCC(F)(F)[C@H]3O)C1 [Example 46, (4S)-1-[(1,1-dioxothietan-3-yl)methyl]-5,5-difluoro-3-(trifluoromethyl)-6,7-dihydro-4H-indazol-4-ol] | 100 to 1000 | 100 to 1000 | 2 | 100 to 1000
4 | O[C@H]1c2c(C(F)(F)F)nn(CCCC(F)(F)F)c2CCC1(F)F [Example 41, (4S)-5,5-difluoro-1-(4,4,4-trifluorobutyl)-3-(trifluoromethyl)-6,7-dihydro-4H-indazol-4-ol] | < 100 | 100 to 1000 | 12 | < 100
5 | CC(F)(F)CCn1nc(C(F)(F)F)c2c1CCC(F)(F)[C@H]2O [Example 32, (4S)-1-(3,3-difluorobutyl)-5,5-difluoro-3-(trifluoromethyl)-6,7-dihydro-4H-indazol-4-ol] | 100 to 1000 | 100 to 1000 | 10 | < 100
6 | O[C@H]1c2c(C(F)(F)F)nn(CC3CC(F)(F)C3)c2CCC1(F)F [Example 2, (4S)-1-[(3,3-difluorocyclobutyl)methyl]-5,5-difluoro-3-(trifluoromethyl)-6,7-dihydro-4H-indazol-4-ol] | 100 to 1000 | > 1000 | 13 | 100 to 1000

From patent publication US12071411B2, “Inhibitors of HIF-2α and methods of use thereof” (ARCUS BIOSCIENCES, INC., priority 2021, dated 2024)
